Earlier results in patent US11999963B2, “Pseudomonas protegens and products thereof to control bacterial panicle blight of rice” (priority 2020, dated 2024).

System: Pythium ultimum
Conditions: Howell & Stipanovic, 1980; Maurhofer et al., 1994

O=C(c1cc(Cl)c(Cl)[nH]1)c1c(O)cccc1O [Pyoluteorin, pyoluteorin]
activity against Pythium ultimum: had activity
